Experimental data from the NIST ThermoML archive (doi:10.1021/je030132i).

Test: xn = mol fraction of the nth substance listed
Conditions: 101.3 kPa, Liquid; for viscosity: Capillary tube (Ostwald / Ubbelohde) method; for mass density: Vibrating tube method

CC(O)CNCC(C)O (configuration not stated) [N-(2-hydroxypropyl)-2-hydroxy-1-propanamine] + O
Conditions | mass density [kg/m3] | viscosity [mPa·s]
298.15 K, x1 = 0.02 | 1005.22 | 1.645
298.15 K, x1 = 0.0498 | 1015.93 | 3.723
298.15 K, x1 = 0.0701 | 1021.72 | 6.06
298.15 K, x1 = 0.1001 | 1027.13 | 11.55
298.15 K, x1 = 0.1999 | 1030.9 | 55.69
298.15 K, x1 = 0.3006 | 1027.13 | 166.1
298.15 K, x1 = 0.3963 | 1022.42 | 338.7
298.15 K, x1 = 0.5012 | 1017.79 | 613
298.15 K, x1 = 0.5957 | 1014.09 | 861
298.15 K, x1 = 0.7034 | 1010.66 | 1142
298.15 K, x1 = 0.8029 | 1008.07 | 1326
298.15 K, x1 = 0.9016 | 1006.28 | 1478
313.15 K, x1 = 0.02 | 999.64 | 1.112
313.15 K, x1 = 0.0498 | 1008.66 | 2.218
313.15 K, x1 = 0.0701 | 1013.2 | 3.335
313.15 K, x1 = 0.1001 | 1017.4 | 5.56
313.15 K, x1 = 0.1999 | 1019.77 | 20.63
313.15 K, x1 = 0.3006 | 1016.15 | 46.9
313.15 K, x1 = 0.3963 | 1011.45 | 87.7
313.15 K, x1 = 0.5012 | 1006.84 | 139.1
313.15 K, x1 = 0.5957 | 1003.2 | 184.6
313.15 K, x1 = 0.7034 | 999.62 | 229.9
313.15 K, x1 = 0.8029 | 997.1 | 264.6
313.15 K, x1 = 0.9016 | 995.03 | 290.7
318.65 K, x1 = 0.02 | 997.52 | 0.992
318.65 K, x1 = 0.0498 | 1006.43 | 1.914
318.65 K, x1 = 0.0701 | 1010.34 | 2.776
318.65 K, x1 = 0.1001 | 1014 | 4.6
318.65 K, x1 = 0.1999 | 1015.54 | 15.21
318.65 K, x1 = 0.3006 | 1011.9 | 32.42
318.65 K, x1 = 0.3963 | 1007.24 | 58.7
318.65 K, x1 = 0.5012 | 1002.82 | 88.1
318.65 K, x1 = 0.5957 | 999.15 | 114.5
318.65 K, x1 = 0.7034 | 995.55 | 140
318.65 K, x1 = 0.8029 | 993.04 | 159.5
318.65 K, x1 = 0.9016 | 990.99 | 174.2
318.65 K, x1 = 1 | 988.22 | 186.6
323.15 K, x1 = 0.02 | 995.02 | 0.907
323.15 K, x1 = 0.0498 | 1003.09 | 1.684
323.15 K, x1 = 0.0701 | 1006.95 | 2.408
323.15 K, x1 = 0.1001 | 1010.46 | 3.78
323.15 K, x1 = 0.1999 | 1012.04 | 12.06
323.15 K, x1 = 0.3006 | 1008.24 | 24.56
323.15 K, x1 = 0.3963 | 1003.75 | 42.8
323.15 K, x1 = 0.5012 | 999.39 | 63.37
323.15 K, x1 = 0.5957 | 995.71 | 79.93
323.15 K, x1 = 0.7034 | 992.23 | 96.22
323.15 K, x1 = 0.8029 | 989.58 | 108.7
323.15 K, x1 = 0.9016 | 987.51 | 118
323.15 K, x1 = 1 | 984.9 | 125.7
333.15 K, x1 = 0.02 | 989.76 | 0.733
333.15 K, x1 = 0.0498 | 996.93 | 1.355
333.15 K, x1 = 0.0701 | 1000.34 | 1.816
333.15 K, x1 = 0.1001 | 1003.16 | 2.719
333.15 K, x1 = 0.1999 | 1004.03 | 7.5
333.15 K, x1 = 0.3006 | 1000.17 | 14.15
333.15 K, x1 = 0.3963 | 995.77 | 22.89
333.15 K, x1 = 0.5012 | 991.52 | 32.12
333.15 K, x1 = 0.5957 | 987.88 | 39.31
333.15 K, x1 = 0.7034 | 984.45 | 46.32
333.15 K, x1 = 0.8029 | 981.79 | 51.38
333.15 K, x1 = 0.9016 | 979.72 | 55.03
333.15 K, x1 = 1 | 977.3 | 57.99
343.15 K, x1 = 0.02 | 983.93 | 0.621
343.15 K, x1 = 0.0498 | 990.37 | 1.061
343.15 K, x1 = 0.0701 | 993.22 | 1.412
343.15 K, x1 = 0.1001 | 995.55 | 2.042
343.15 K, x1 = 0.1999 | 995.78 | 5.05
343.15 K, x1 = 0.3006 | 991.86 | 8.7
343.15 K, x1 = 0.3963 | 987.44 | 13.34
343.15 K, x1 = 0.5012 | 983.33 | 17.88
343.15 K, x1 = 0.5957 | 979.75 | 21.19
343.15 K, x1 = 0.7034 | 976.35 | 24.42
343.15 K, x1 = 0.8029 | 973.95 | 26.64
343.15 K, x1 = 0.9016 | 971.72 | 28.29
343.15 K, x1 = 1 | 969.58 | 29.55
